Data taken from ChEMBL document CHEMBL1134140, “Design, synthesis, and biological evaluation of a series of simple and novel potential antimalarial compounds” (Bioorg Med Chem Lett, 2001).

Columns and labels:
Plasmodium falciparum = assay: In vitro inhibitory activity against Plasmodium falciparum; assay type: functional, organism-based
[1] = The toxicity was evaluated against KB cells using podophyllotoxin (ED50 0.2 nM) as a standard; assay type: functional; settings: Homo sapiens, read-out: ED50 (the source's name)
Trypanosoma cruzi [2] = assay: (§1) In vitro Trypanosoma cruzi (TC); assay type: functional; settings: read-out: ED50 (the source's name)
Trypanosoma cruzi [3] = assay: as §1; assay type: functional, organism-based
[4] = The toxicity was evaluated against KB cells; assay type: functional; settings: Homo sapiens, read-out: ED50 (the source's name)

SMILES | IC50 (Plasmodium falciparum) | EC50 [1] | EC50 (Trypanosoma cruzi [2]) | IC50 (Trypanosoma cruzi [3]) | EC50 [4]
CCCC(=O)Oc1c(OC)c(OC)cc2c1C(=O)[C@]1(OC)C=C[C@H]2N(c2ccccc2)O1 | 3.9 µM | 3.2 µM | > 68.3 µM |  | 
COc1cc2c(c(OC(=O)c3ccc(F)cc3)c1OC)C(=O)[C@]1(OC)C=C[C@H]2N(c2ccccc2)O1 | 7.5 µM | 6.5 µM | 9.2 µM |  | 
COc1ccc(C(=O)Oc2c(OC)c(OC)cc3c2C(=O)[C@]2(OC)C=C[C@H]3N(c3ccccc3)O2)cc1 | 6.6 µM | 13.3 µM | > 59.6 µM |  | 
COc1cc2c(c(OC)c1OC)C(=O)[C@]1(OC)C=C[C@H]2N(c2ccccc2)O1 | 8.9 µM | < 0.8 µM | 65.3 µM |  | 
COc1cc2c(c(O)c1OC)C(=O)[C@]1(OC)C=C[C@H]2N(c2ccccc2)O1 | 5.4 µM | < 0.8 µM | 4.3 µM |  | 
COc1cc2c(c(OC(=O)c3ccccc3)c1OC)C(=O)[C@]1(OC)C=C[C@H]2N(c2ccccc2)O1 | 3.4 µM | 11.8 µM | > 63.4 µM |  | 
COc1cc2c(c(OC(=O)COC(C)=O)c1OC)C(=O)[C@]1(OC)C=C[C@H]2N(c2ccccc2)O1 | 3.2 µM | 128 µM | > 63.9 µM |  | 
COc1cc2c(c(OC(=O)c3ccc(Cl)cc3)c1OC)C(=O)[C@]1(OC)C=C[C@H]2N(c2ccccc2)O1 | > 59 µM | 29.1 µM | > 59 µM |  | 
CCC(=O)Oc1c(OC)c(OC)cc2c1C(=O)[C@]1(OC)C=C[C@H]2N(c2ccccc2)O1 | 6.6 µM | < 0.7 µM |  | > 70.5 µM | 
COc1cc2c(c(OC(C)=O)c1OC)C(=O)[C@]1(OC)C=C[C@H]2N(c2ccccc2)O1 | 5.3 µM | 6.3 µM |  | 23.8 µM | 
COc1cc2c(c(OC(=O)c3ccccc3F)c1OC)C(=O)[C@]1(OC)C=C[C@H]2N(c2ccccc2)O1 | 6.3 µM | 7.7 µM | > 61 µM |  | 
COc1cc2c(c(OC(=O)CN3C(=O)c4ccccc4C3=O)c1OC)C(=O)[C@]1(OC)C=C[C@H]2N(c2ccccc2)O1 | 6.1 µM | 89.8 µM | 11.9 µM |  | 
O=C(Cn1ccnc1[N+](=O)[O-])NCc1ccccc1 [BENZNIDAZOLE] |  |  | 7.1 µM |  | 
COc1cc([C@@H]2c3cc4c(cc3[C@H](O)[C@H]3COC(=O)[C@H]23)OCO4)cc(OC)c1OC [PODOFILOX] |  |  |  |  | 0.0002 µM
